In brackets after ≈: the same amount, converted by molar mass.
Columns and labels:
Assay in all cases: Antimicrobial activity (MIC)
Format in all cases: cell-based
Staphylococcus aureus = details: Staphylococcus aureus, DSM2569; Strain ID DSM 2569; potato dextrose broth pH 3.8; read-out: Minimal Inhibitory Concentration (MIC)
Bacillus licheniformis = details: Bacillus licheniformis, DSM13; Strain ID DSM 13; potato dextrose broth pH 3.8; read-out: Minimal Inhibitory Concentration (MIC)
Clostridium sporogenes = details: Clostridium sporogenes, ATCC19404; Strain ID ATCC 19404; potato dextrose broth pH 3.8; read-out: Minimal Inhibitory Concentration (MIC)
Enterobacter cloacae = details: Enterobacter cloacae, DSM6234; Strain ID DSM 6234; potato dextrose broth pH 3.8; read-out: Minimal Inhibitory Concentration (MIC)
Candida parapsilosis = details: Lodderomyces parapsilosis, ATCC20384; Strain ID ATCC 20384; potato dextrose broth pH 3.8; read-out: Minimal Inhibitory Concentration (MIC)
Penicillium expansum = details: Penicillium expansum, DSM62841; Strain ID DSM 62841; potato dextrose broth pH 3.8; read-out: Minimal Inhibitory Concentration (MIC)
Saccharomyces cerevisiae = details: Saccharomyces cerevisiae, DSM2548; Strain ID DSM 2548; potato dextrose broth pH 3.8; read-out: Minimal Inhibitory Concentration (MIC)
Alternaria alternata = details: Alternaria alternata, DSM12633; Strain ID DSM 12633; potato dextrose broth pH 3.8; read-out: Minimal Inhibitory Concentration (MIC)
[1] = test system: Pasteurella multocida ssp. multocida; details: Pasteurella multocida, DSM16031; Strain ID DSM 16031; potato dextrose broth pH 3.8; read-out: Minimal Inhibitory Concentration (MIC)
Byssochlamys fulva = details: Paecilomyces fulvus, DSM1808; Strain ID DSM 1808; potato dextrose broth pH 3.8; read-out: Minimal Inhibitory Concentration (MIC)
[2] = test system: Lactobacillus plantarum ssp. plantarum; details: Lactiplantibacillus plantarum, DSM20174; Strain ID DSM 20174; potato dextrose broth pH 3.8; read-out: Minimal Inhibitory Concentration (MIC)
[3] = test system: Leuconostoc mesenteroides ssp. mesenteroides; details: Leuconostoc mesenteroides, DSM20343; Strain ID DSM 20343; potato dextrose broth pH 3.8; read-out: Minimal Inhibitory Concentration (MIC)
Porphyromonas gingivalis = details: Porphyromonas gingivalis, DSM20709; Strain ID DSM 20709; potato dextrose broth pH 3.8; read-out: Minimal Inhibitory Concentration (MIC)
Enterococcus faecalis = details: Enterococcus faecalis, ATCC7080; Strain ID ATCC 7080; potato dextrose broth pH 3.8; read-out: Minimal Inhibitory Concentration (MIC)
Campylobacter jejuni = details: Campylobacter jejuni, DSM4688; Strain ID DSM 4688; potato dextrose broth pH 3.8; read-out: Minimal Inhibitory Concentration (MIC)
Actinomyces viscosus = details: Actinomyces viscosus; Strain ID DSM43798; potato dextrose broth pH 3.8; read-out: Minimal Inhibitory Concentration (MIC)
Malassezia furfur = details: Malassezia furfur, DSM6170; Strain ID DSM 6170; potato dextrose broth pH 3.8; read-out: Minimal Inhibitory Concentration (MIC)
[4] = test system: Phanerochaete chrysosporium; details: Phanerodontia chrysosporium, DSM1556; Strain ID DSM 1556; potato dextrose broth pH 3.8; read-out: Minimal Inhibitory Concentration (MIC)
Zygosaccharomyces bailii = details: Zygosaccharomyces bailii, DSM70834; Strain ID DSM 70834; potato dextrose broth pH 3.8; read-out: Minimal Inhibitory Concentration (MIC)
Yarrowia lipolytica = details: Yarrowia lipolytica, DSM70561; Strain ID DSM 70561; potato dextrose broth pH 3.8; read-out: Minimal Inhibitory Concentration (MIC)
Zygosaccharomyces rouxii = details: Zygosaccharomyces rouxii, DSM7525; Strain ID DSM 7525; potato dextrose broth pH 3.8; read-out: Minimal Inhibitory Concentration (MIC)
Pseudomonas fluorescens = details: Pseudomonas fluorescens; Strain ID DSM50337; potato dextrose broth pH 3.8; read-out: Minimal Inhibitory Concentration (MIC)
Listeria monocytogenes = details: Listeria monocytogenes, DSM20600; Strain ID DSM 20600; potato dextrose broth pH 3.8; read-out: Minimal Inhibitory Concentration (MIC)
Streptococcus mutans = details: Streptococcus mutans, DSM20523; Strain ID DSM 20523; potato dextrose broth pH 3.8; read-out: Minimal Inhibitory Concentration (MIC)
[5] = test system: Cladosporium cladosporioides; details: Cladosporium cladosporioides; Strain ID DSM19653; potato dextrose broth pH 3.8; read-out: Minimal Inhibitory Concentration (MIC)
Candida albicans = details: Candida albicans; Strain ID ATCC10231; potato dextrose broth pH 3.8; read-out: Minimal Inhibitory Concentration (MIC)
[6] = test system: Brettanomyces naardenensis; details: Brettanomyces naardenensis, CBS6115; Strain ID CBS 6115; potato dextrose broth pH 3.8; read-out: Minimal Inhibitory Concentration (MIC)

C[C@@H]1O[C@@H](O[C@H]2[C@H](O[C@H]3CC[C@@]4(C)[C@@H](CC[C@]5(C)[C@@H]4CC=C4[C@@H]6CC(C)(C)CC[C@]6(C(=O)O)CC[C@]45C)[C@]3(C)CO)OC[C@H](O)[C@@H]2O)[C@H](O)[C@H](O[C@@H]2OC[C@@H](O)[C@H](O)[C@H]2O)[C@H]1O [A, Sapindoside B [30994-75-3]]
MIC (Staphylococcus aureus): > 80 µg/mL
MIC (Bacillus licheniformis): > 80 µg/mL
MIC (Clostridium sporogenes): 80 µg/mL (≈ 90.6 µM)
MIC (Enterobacter cloacae): > 80 µg/mL
MIC (Candida parapsilosis): > 80 µg/mL
MIC (Penicillium expansum): > 500 µg/mL
MIC (Saccharomyces cerevisiae): > 80 µg/mL
MIC (Alternaria alternata): > 80 µg/mL
MIC [1]: > 80 µg/mL
MIC (Byssochlamys fulva): > 80 µg/mL
MIC [2]: 40 µg/mL (≈ 45.3 µM)
MIC [3]: > 80 µg/mL
MIC (Porphyromonas gingivalis): > 80 µg/mL
MIC (Enterococcus faecalis): > 80 µg/mL
MIC (Campylobacter jejuni): > 80 µg/mL
MIC (Actinomyces viscosus): > 80 µg/mL
MIC (Malassezia furfur): > 80 µg/mL
MIC [4]: > 80 µg/mL
MIC (Zygosaccharomyces bailii): > 80 µg/mL
MIC (Yarrowia lipolytica): > 80 µg/mL
MIC (Zygosaccharomyces rouxii): 500 µg/mL (≈ 566 µM)
MIC (Pseudomonas fluorescens): > 80 µg/mL
MIC (Listeria monocytogenes): > 80 µg/mL
MIC (Streptococcus mutans): > 80 µg/mL
MIC [5]: > 80 µg/mL
MIC (Candida albicans): > 80 µg/mL
MIC [6]: > 80 µg/mL
